Experimental data taken from patent US10457691B2, “Macrocyclic kinase inhibitors and uses thereof” (Dana-Farber Cancer Institute, Inc., priority 2014, dated 2019).

Experiments:
Format in all cases: biochemical
[1] = test system: ROCK 2; assay: Protein kinase assay ([γ-32P] ATP), ROCK 2
Method: (§1) In another set of experiments, the activities of the compounds described herein against various protein kinases were determined according to the methods reported in Hastie et al., Nature Protocols, 2006, 1, 968-971.
(§2) Enzyme dilution buffer. This buffer consisted of 50 mM Tris-HCl, pH 7.5, 0.1 mM EGTA, 1 mg ml^−1 bovine serum albumin and 0.1% (vol/vol) 2-mercaptoethanol.
(§3) 10× concentrated assay buffer. An assay buffer of 500 mM Tris-HCl, pH 7.5, 1 mM EGTA, and 100 mM magnesium acetate was used for assay of a wide variety of protein kinases. In some experiments, other cofactors were included (e.g., calcium ions and calmodulin were included for assay of calcium-calmodulindependent protein kinases).
(§4) 1 mM [γ-^32P] ATP. The specific activity of the [γ-^32P] ATP solution was 1×10^5 to 1×10^6 c.p.m. per nmol depending on what was needed to produce an optimal signal/noise ratio. […] To measure the concentration of ATP, a sample of such a stock solution was diluted to 20 μM, and the absorbance of the diluted sample was measured at 259 nm. The absorbance of a 20-μM stock solution of ATP at 259 nm was about 0.31. […] ATP to produce a radioactivity of 1×10^5 to 1×10^6 c.p.m. per nmol. […]
(§5) 13) Measure radioactivity in the samples by Cerenkov counting (e.g., without liquid scintillation fluid) in a liquid scintillation counter using a “^32P program”. […]

[2] = target: BTK (Homo sapiens, UniProt Q06187); assay: Protein kinase assay ([γ-32P] ATP), BTK; conditions: read-out: Activity of the protein kinase when treated with compound I-1 (% control)
BTK, sequence (Q06187 whole entry): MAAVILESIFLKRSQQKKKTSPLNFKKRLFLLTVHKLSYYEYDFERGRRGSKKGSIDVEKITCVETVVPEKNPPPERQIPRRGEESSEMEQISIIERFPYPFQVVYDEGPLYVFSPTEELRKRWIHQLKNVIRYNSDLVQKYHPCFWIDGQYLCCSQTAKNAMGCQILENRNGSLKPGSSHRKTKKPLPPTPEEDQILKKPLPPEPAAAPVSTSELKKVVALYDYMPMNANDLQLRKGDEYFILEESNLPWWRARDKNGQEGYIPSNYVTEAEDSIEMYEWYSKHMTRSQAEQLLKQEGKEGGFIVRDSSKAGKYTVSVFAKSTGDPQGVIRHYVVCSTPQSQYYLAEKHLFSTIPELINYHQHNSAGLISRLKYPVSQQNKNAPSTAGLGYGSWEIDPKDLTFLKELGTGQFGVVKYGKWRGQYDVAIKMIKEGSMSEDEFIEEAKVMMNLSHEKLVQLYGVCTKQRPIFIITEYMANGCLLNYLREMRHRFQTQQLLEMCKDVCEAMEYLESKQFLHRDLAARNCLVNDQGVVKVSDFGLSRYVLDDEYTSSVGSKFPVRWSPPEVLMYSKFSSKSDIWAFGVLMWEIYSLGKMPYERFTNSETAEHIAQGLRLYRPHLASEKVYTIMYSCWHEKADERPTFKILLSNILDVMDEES
Method: as §1, §2, §3, §4, §5

[3] = target: EF2K (Homo sapiens, UniProt O00418); assay: Protein kinase assay ([γ-32P] ATP), EF2K; conditions: read-out: Activity of the protein kinase when treated with compound I-1 (% control)
EF2K, sequence (O00418 whole entry): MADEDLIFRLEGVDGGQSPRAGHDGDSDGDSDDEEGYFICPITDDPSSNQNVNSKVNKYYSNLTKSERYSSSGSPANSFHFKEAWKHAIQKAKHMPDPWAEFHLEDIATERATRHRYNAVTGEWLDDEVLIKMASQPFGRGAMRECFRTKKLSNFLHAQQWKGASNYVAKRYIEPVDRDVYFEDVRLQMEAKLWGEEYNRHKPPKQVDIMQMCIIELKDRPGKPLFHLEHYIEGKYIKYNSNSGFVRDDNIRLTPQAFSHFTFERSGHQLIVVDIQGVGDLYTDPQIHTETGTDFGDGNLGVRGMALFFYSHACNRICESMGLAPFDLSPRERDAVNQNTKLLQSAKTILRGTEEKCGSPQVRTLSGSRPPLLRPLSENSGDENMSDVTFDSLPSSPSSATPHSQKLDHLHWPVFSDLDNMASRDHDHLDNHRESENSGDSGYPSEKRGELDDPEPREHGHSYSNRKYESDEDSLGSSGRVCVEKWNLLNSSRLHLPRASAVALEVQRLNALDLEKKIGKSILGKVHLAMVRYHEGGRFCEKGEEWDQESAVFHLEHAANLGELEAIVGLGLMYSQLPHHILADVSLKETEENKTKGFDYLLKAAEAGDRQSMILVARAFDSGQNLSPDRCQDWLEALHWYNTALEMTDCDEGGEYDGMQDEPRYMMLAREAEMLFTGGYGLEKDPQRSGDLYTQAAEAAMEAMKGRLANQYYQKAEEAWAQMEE
Method: as §1, §2, §3, §4, §5

[4] = target: GSK3b (Homo sapiens, UniProt P49841); assay: Protein kinase assay ([γ-32P] ATP), GSK3b; conditions: read-out: Activity of the protein kinase when treated with compound I-1 (% control)
GSK3b, sequence (P49841 whole entry): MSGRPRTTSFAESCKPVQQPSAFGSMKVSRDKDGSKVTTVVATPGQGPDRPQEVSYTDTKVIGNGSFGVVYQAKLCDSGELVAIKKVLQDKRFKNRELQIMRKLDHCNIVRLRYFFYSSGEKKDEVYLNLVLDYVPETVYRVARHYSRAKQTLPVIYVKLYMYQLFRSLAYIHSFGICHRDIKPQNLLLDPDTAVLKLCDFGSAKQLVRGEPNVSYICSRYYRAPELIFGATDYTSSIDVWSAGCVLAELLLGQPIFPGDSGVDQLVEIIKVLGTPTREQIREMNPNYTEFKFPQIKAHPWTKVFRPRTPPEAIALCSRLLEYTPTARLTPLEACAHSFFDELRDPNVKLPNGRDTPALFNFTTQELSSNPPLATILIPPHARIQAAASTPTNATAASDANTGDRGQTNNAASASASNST
Method: as §1, §2, §3, §4, §5

[5] = target: PDK1 (Homo sapiens, UniProt O15530); assay: Protein kinase assay ([γ-32P] ATP), PDK1; conditions: read-out: Activity of the protein kinase when treated with compound I-1 (% control)
Method: as §1, §2, §3, §4, §5

[6] = target: JNK1 (Homo sapiens, UniProt P45983); assay: Protein kinase assay ([γ-32P] ATP), JNK1; conditions: read-out: Activity of the protein kinase when treated with compound I-1 (% control)
JNK1, sequence (P45983 whole entry): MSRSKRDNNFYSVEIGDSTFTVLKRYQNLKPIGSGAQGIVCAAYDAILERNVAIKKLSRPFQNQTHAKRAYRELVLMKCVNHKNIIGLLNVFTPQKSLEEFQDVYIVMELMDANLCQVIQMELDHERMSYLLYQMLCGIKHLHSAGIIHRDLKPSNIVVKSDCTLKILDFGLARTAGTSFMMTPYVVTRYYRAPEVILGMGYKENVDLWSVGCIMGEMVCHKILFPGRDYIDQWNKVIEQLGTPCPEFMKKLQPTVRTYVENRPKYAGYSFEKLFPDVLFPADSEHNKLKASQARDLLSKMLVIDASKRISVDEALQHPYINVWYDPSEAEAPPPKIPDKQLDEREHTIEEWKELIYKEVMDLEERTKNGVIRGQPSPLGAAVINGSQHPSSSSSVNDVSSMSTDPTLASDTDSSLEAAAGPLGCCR
Method: as §1, §2, §3, §4, §5

[7] = target: PAK5 (Homo sapiens, UniProt Q9P286); assay: Protein kinase assay ([γ-32P] ATP), PAK5; conditions: read-out: Activity of the protein kinase when treated with compound I-1 (% control)
PAK5, sequence (Q9P286 whole entry): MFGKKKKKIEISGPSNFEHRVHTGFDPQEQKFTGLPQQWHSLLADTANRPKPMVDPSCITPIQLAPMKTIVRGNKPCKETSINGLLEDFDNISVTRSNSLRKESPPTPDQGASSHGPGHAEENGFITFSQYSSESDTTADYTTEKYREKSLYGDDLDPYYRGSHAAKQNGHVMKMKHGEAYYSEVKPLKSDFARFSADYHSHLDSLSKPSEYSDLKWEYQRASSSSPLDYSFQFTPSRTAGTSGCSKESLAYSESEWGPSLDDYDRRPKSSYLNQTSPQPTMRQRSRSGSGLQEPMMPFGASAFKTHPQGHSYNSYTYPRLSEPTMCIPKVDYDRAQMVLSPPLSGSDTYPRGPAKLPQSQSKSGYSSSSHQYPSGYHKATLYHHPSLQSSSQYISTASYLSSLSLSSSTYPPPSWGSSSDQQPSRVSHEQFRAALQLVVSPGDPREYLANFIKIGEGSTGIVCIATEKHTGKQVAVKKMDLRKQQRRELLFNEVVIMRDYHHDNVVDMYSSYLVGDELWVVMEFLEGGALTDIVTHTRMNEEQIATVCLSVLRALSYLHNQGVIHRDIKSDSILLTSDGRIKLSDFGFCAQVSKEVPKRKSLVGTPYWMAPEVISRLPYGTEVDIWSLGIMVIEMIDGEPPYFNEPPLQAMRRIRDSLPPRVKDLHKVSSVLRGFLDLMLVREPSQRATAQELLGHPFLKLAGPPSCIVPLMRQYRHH
Method: as §1, §2, §3, §4, §5

[8] = target: DYRK3 (Homo sapiens, UniProt O43781); assay: Protein kinase assay ([γ-32P] ATP), DYRK3; conditions: read-out: Activity of the protein kinase when treated with compound I-1 (% control)
Method: as §1, §2, §3, §4, §5

[9] = test system: PHK; assay: Protein kinase assay ([γ-32P] ATP), PHK
Method: as §1, §2, §3, §4, §5

[10] = target: TAK1 (Homo sapiens, UniProt O43318); assay: Protein kinase assay ([γ-32P] ATP), TAK1; conditions: read-out: Activity of the protein kinase when treated with compound I-1 (% control)
TAK1, sequence (O43318 1-303 limits assumed): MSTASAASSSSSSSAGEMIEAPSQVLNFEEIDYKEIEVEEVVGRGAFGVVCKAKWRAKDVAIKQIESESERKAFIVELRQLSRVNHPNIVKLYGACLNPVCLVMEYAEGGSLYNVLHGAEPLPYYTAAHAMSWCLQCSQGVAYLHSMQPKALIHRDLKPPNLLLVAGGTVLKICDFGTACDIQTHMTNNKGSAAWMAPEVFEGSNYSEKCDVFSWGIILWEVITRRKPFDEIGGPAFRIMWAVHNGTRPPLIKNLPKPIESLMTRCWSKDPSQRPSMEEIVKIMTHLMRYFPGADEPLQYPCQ
Method: as §1, §2, §3, §4, §5

[11] = target: RIPK2 (Homo sapiens, UniProt O43353); assay: Protein kinase assay ([γ-32P] ATP), RIPK2; conditions: read-out: Activity of the protein kinase when treated with compound I-1 (% control)
Method: as §1, §2, §3, §4, §5

[12] = target: HIPK1 (Homo sapiens, UniProt Q86Z02); assay: Protein kinase assay ([γ-32P] ATP), HIPK1; conditions: read-out: Activity of the protein kinase when treated with compound I-1 (% control)
Method: as §1, §2, §3, §4, §5

[13] = target: NEK2a (Homo sapiens, UniProt P51955); assay: Protein kinase assay ([γ-32P] ATP), NEK2a; conditions: read-out: Activity of the protein kinase when treated with compound I-1 (% control)
Method: as §1, §2, §3, §4, §5

[14] = target: EIF2AK3 (Homo sapiens, UniProt Q9NZJ5); assay: Protein kinase assay ([γ-32P] ATP), EIF2AK3; conditions: read-out: Activity of the protein kinase when treated with compound I-1 (% control)
Method: as §1, §2, §3, §4, §5

[15] = target: MARK4 (Homo sapiens, UniProt Q96L34); assay: Protein kinase assay ([γ-32P] ATP), MARK4; conditions: read-out: Activity of the protein kinase when treated with compound I-1 (% control)
Method: as §1, §2, §3, §4, §5

[16] = target: GCK (Homo sapiens, UniProt Q12851); assay: Protein kinase assay ([γ-32P] ATP), GCK; conditions: read-out: Activity of the protein kinase when treated with compound I-1 (% control)
GCK, sequence (Q12851 whole entry): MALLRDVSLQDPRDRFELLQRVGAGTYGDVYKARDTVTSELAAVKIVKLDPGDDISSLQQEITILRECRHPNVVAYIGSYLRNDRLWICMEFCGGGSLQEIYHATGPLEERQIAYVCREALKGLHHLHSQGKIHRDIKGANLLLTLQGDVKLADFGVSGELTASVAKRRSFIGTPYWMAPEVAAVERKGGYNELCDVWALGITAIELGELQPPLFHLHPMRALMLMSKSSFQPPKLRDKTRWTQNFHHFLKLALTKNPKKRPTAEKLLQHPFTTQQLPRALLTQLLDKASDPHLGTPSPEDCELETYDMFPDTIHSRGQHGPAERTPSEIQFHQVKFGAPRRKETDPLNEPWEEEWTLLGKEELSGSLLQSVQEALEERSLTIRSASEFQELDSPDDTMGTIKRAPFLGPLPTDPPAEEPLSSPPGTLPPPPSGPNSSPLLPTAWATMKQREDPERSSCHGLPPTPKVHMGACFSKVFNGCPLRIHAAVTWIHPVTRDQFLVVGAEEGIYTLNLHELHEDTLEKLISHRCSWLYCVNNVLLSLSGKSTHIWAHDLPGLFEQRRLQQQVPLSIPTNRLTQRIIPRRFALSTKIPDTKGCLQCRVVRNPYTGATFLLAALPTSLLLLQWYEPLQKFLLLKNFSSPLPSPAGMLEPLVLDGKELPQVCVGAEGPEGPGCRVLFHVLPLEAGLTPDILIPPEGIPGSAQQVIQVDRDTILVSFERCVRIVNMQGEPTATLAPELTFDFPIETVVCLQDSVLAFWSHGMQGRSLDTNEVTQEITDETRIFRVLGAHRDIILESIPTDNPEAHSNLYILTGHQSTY
Method: as §1, §2, §3, §4, §5

[17] = target: EPH-B3 (Homo sapiens, UniProt P54753); assay: Protein kinase assay ([γ-32P] ATP), EPH-B3; conditions: read-out: Activity of the protein kinase when treated with compound I-1 (% control)
EPH-B3, sequence (P54753 34-998): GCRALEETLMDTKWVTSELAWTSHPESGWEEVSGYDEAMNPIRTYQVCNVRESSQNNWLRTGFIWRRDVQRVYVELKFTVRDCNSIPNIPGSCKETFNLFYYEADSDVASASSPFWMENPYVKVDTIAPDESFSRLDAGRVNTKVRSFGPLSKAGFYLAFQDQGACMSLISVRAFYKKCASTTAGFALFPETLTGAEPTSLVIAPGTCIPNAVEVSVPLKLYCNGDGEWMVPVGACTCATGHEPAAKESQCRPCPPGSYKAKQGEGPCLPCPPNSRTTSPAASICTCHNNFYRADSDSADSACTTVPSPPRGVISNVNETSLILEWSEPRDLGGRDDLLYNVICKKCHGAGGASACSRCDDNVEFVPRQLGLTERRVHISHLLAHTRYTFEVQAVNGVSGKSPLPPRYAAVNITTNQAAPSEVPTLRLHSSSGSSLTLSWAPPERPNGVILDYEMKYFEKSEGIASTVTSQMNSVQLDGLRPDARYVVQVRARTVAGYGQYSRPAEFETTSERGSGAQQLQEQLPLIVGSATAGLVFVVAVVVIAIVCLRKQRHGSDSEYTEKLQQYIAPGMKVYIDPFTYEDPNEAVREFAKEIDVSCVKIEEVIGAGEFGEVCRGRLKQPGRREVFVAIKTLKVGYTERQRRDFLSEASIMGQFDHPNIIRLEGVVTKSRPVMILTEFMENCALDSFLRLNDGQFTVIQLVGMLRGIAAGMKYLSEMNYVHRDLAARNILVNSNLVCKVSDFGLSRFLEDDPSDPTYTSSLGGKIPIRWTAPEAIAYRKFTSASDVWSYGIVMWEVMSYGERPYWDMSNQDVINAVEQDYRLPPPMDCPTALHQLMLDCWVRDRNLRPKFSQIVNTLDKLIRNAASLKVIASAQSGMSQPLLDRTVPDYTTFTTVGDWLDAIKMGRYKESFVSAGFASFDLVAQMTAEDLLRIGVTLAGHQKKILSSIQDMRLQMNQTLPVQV
Method: as §1, §2, §3, §4, §5

[18] = 0.1 μM of compound I-1, DMSO control = 100%
[19] = 1 μM of compound I-1, DMSO control = 100%

## Cc1cccc(C)c1NC(=O)N1C/C=C\COc2cccc(c2)Nc2cc1ncn2 [Compound I-1]
[1]; [18]
  Activity of the protein kinase when treated with compound I-1 (% control): 95 % control
[1]; [19]
  Activity of the protein kinase when treated with compound I-1 (% control): 91 % control
[2]; [18]
  remaining activity at 0.1 µM: 46%
[2]; [19]
  remaining activity at 1 µM: 48%
[3]; [18]
  remaining activity at 0.1 µM: 103%
[3]; [19]
  remaining activity at 1 µM: 83%
[4]; [18]
  remaining activity at 0.1 µM: 101%
[4]; [19]
  remaining activity at 1 µM: 75%
[5]; [18]
  remaining activity at 0.1 µM: 103%
[5]; [19]
  remaining activity at 1 µM: 87%
[6]; [18]
  remaining activity at 0.1 µM: 93%
[6]; [19]
  remaining activity at 1 µM: 72%
[7]; [18]
  remaining activity at 0.1 µM: 90%
[7]; [19]
  remaining activity at 1 µM: 64%
[8]; [18]
  remaining activity at 0.1 µM: 99%
[8]; [19]
  remaining activity at 1 µM: 87%
[9]; [18]
  Activity of the protein kinase when treated with compound I-1 (% control): 88 % control
[9]; [19]
  Activity of the protein kinase when treated with compound I-1 (% control): 100 % control
[10]; [18]
  remaining activity at 0.1 µM: 105%
[10]; [19]
  remaining activity at 1 µM: 81%
[11]; [18]
  remaining activity at 0.1 µM: 33%
[11]; [19]
  remaining activity at 1 µM: 5%
[12]; [18]
  remaining activity at 0.1 µM: 99%
[12]; [19]
  remaining activity at 1 µM: 82%
[13]; [18]
  remaining activity at 0.1 µM: 97%
[13]; [19]
  remaining activity at 1 µM: 85%
[14]; [18]
  remaining activity at 0.1 µM: 97%
[14]; [19]
  remaining activity at 1 µM: 80%
[15]; [18]
  remaining activity at 0.1 µM: 103%
[15]; [19]
  remaining activity at 1 µM: 81%
[16]; [18]
  remaining activity at 0.1 µM: 71%
[16]; [19]
  remaining activity at 1 µM: 16%
[17]; [18]
  remaining activity at 0.1 µM: 25%
[17]; [19]
  remaining activity at 1 µM: 2%
